In ChEMBL document CHEMBL6153040, “Discovery of the salicylaldehyde-based compound DDO-02267 as a lysine-targeting covalent inhibitor of ALKBH5” (Eur J Med Chem, 2025) one finds IC50, inhibition and Kd data, which are given here for 24 compounds.

Structures are written as SMILES. Activity calls are given as the source filed them. The rule behind the calls is not given here.

For experiment [1], the target named is T1, RNA demethylase ALKBH5 (Homo sapiens, UniProt Q6P6C2). Kind of experiment: Inhibition of ALKBH5 (66 to 292 residues) (unknown origin) extracted from Escherichia coli BL21 (DE3) cells using m6A ssDNA as substrate measured after 1 hrs by fluorescence polarization assay. Background: Fluorescence polarisation rises when a labelled molecule tumbles more slowly, as on binding a larger partner.
Target sequence in this assay (Q6P6C2 whole entry, the tested form may be a part): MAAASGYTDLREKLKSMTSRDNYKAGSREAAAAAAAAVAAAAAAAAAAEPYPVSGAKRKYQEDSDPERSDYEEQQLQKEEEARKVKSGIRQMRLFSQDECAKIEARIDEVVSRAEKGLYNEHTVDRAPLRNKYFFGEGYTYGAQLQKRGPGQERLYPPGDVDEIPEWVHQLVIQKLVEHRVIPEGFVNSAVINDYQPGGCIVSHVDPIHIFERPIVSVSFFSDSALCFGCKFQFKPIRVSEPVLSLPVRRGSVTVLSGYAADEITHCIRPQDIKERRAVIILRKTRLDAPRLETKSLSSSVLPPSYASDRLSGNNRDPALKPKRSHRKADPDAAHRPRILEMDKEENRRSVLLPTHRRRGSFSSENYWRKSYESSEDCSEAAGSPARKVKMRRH

In experiment [2] the target is T1, RNA demethylase ALKBH5. Kind of experiment: Inhibition of ALKBH5 (66 to 292 residues) (unknown origin) extracted from Escherichia coli BL21 (DE3) cells using m6A ssDNA as substrate measured immediately by fluorescence polarization assay.
Target sequence in this assay (Q6P6C2 whole entry, the tested form may be a part): as above
The target of experiment [3] is T1, RNA demethylase ALKBH5. Kind of experiment: Inhibition of ALKBH5 (66 to 292 residues) (unknown origin) extracted from Escherichia coli BL21 (DE3) cells using m6A ssDNA as substrate measured after 2 hrs by fluorescence polarization assay.
Target sequence in this assay (Q6P6C2 whole entry, the tested form may be a part): as above
Experiment [4] concerns the target T1, RNA demethylase ALKBH5. As to the kind of experiment: Inhibition of ALKBH5 (66 to 292 residues) (unknown origin) extracted from Escherichia coli BL21 (DE3) cells using m6A ssDNA as substrate measured after 6 hrs by fluorescence polarization assay.
Target sequence in this assay (Q6P6C2 whole entry, the tested form may be a part): as above
In experiment [5] the target is T1, RNA demethylase ALKBH5. As to the kind of experiment: Inhibition of ALKBH5 (66 to 292 residues) (unknown origin) demethylase activity extracted from Escherichia coli BL21 (DE3) cells at 200 uM preincubated for 3 hrs and measured after compound washout by small molecule dilution method.
Target sequence in this assay (Q6P6C2 2-394 limits assumed): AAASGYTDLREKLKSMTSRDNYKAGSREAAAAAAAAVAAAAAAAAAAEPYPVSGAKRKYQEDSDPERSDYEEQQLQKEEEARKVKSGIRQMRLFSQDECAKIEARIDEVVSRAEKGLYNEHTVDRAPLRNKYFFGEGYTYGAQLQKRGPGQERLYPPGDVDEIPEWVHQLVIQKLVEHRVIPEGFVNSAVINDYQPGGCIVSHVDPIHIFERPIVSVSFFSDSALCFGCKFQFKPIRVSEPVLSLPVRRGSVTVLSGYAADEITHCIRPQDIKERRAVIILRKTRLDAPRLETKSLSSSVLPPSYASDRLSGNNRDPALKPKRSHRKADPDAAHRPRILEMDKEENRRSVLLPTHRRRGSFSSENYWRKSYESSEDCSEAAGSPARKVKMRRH
The target of experiment [6] is T1, RNA demethylase ALKBH5. Kind of experiment: Binding affinity to ALKBH5 (66 to 292 residues) (unknown origin) extracted from Escherichia coli BL21 (DE3) cells assessed as dissociation constant incubated for 5 hrs by MST analysis.
Target sequence in this assay (Q6P6C2 whole entry, the tested form may be a part): as the sequence (Q6P6C2 whole entry, the tested form may be a part) above
Experiment [7] deals with T1, RNA demethylase ALKBH5. As to the kind of experiment: Inhibition of ALKBH5 (66 to 292 residues) (unknown origin) extracted from Escherichia coli BL21 (DE3) cells using m6A ssDNA as substrate incubated for 2 hrs by TBE-PAGE based restriction enzyme digestion assay.
Target sequence in this assay (Q6P6C2 2-394 limits assumed): as the sequence (Q6P6C2 2-394 limits assumed) above
The target of experiment [8] is T1, RNA demethylase ALKBH5. As to the kind of experiment: Binding affinity to ALKBH5 (66 to 292 residues) (unknown origin) extracted from Escherichia coli BL21 (DE3) cells assessed as dissociation constant incubated for 1.5 hrs by MST analysis.
Target sequence in this assay (Q6P6C2 whole entry, the tested form may be a part): as the sequence (Q6P6C2 whole entry, the tested form may be a part) above
Experiment [9] deals with T1, RNA demethylase ALKBH5. Kind of experiment: Binding affinity to ALKBH5 (66 to 292 residues) (unknown origin) extracted from Escherichia coli BL21 (DE3) cells assessed as dissociation constant incubated for 4 hrs by MST analysis.
The target of experiment [10] is T1, RNA demethylase ALKBH5. Kind of experiment: Inhibition of ALKBH5 (66 to 292 residues) (unknown origin) extracted from Escherichia coli BL21 (DE3) cells using m6A ssDNA as substrate at 1.25 to 10 uM incubated for 2 hrs in presence of 2-OG by TBE-PAGE based restriction enzyme digestion assay. The note with it: dose 1.25-10 µM.
Target sequence in this assay (Q6P6C2 2-394 limits assumed): as the sequence (Q6P6C2 2-394 limits assumed) above
Experiment [11] deals with T1, RNA demethylase ALKBH5. As to the kind of experiment: Binding affinity to ALKBH5 (66 to 292 residues) (unknown origin) extracted from Escherichia coli BL21 (DE3) cells assessed as dissociation constant incubated for 3 hrs by MST analysis.
Experiment [12] deals with T1, RNA demethylase ALKBH5. As to the kind of experiment: Binding affinity to ALKBH5 (66 to 292 residues) (unknown origin) extracted from Escherichia coli BL21 (DE3) cells assessed as dissociation constant incubated for 1 hrs by MST analysis.

What is called IC50 is the concentration that gives 50% inhibition. In the case of `O=C(CCl)Nc1cccc(S(=O)(=O)NC(=O)c2cc(C(=O)O)ccn2)c1`, the IC50 on RNA demethylase ALKBH5 [1] was determined as 15 µM; against RNA demethylase ALKBH5 [2], 30.6 µM; on RNA demethylase ALKBH5 [3], 10.4 µM.
For the compound `O=C(O)c1ccnc(C(=O)NS(=O)(=O)c2ccccc2-c2ccccc2)c1`, 82.1 µM corresponded to half-maximal inhibition against RNA demethylase ALKBH5 [4] (IC50). That is a double-digit micromolar value.
Take `O=C(O)c1ccnc(C(=O)NS(=O)(=O)c2ccccc2)c1`: the half-inhibitory concentration (IC50) against RNA demethylase ALKBH5 [1] was determined as 51.9 µM; on RNA demethylase ALKBH5 [2] it was 64.9 µM; against RNA demethylase ALKBH5 [3], 52.1 µM; at RNA demethylase ALKBH5 [4], 56.8 µM.
Turning to `O=C(O)c1ccnc(C(=O)NS(=O)(=O)c2cccc(-c3ccccc3)c2)c1`, the 50% inhibitory concentration (IC50) on RNA demethylase ALKBH5 [4] worked out at 15 µM.
For `O=C(O)c1cccc(C(=O)NS(=O)(=O)c2ccccc2[N+](=O)[O-])c1`, the concentration for half-maximal inhibition (IC50) at RNA demethylase ALKBH5 [4] was > 200 µM.
Same read-out and setting: as for `O=C(O)c1ccnc(C(=O)NS(=O)(=O)c2ccc3ccccc3c2)c1`, the figure is 15.2 µM.
As to `O=C(CCl)Nc1ccccc1S(=O)(=O)NC(=O)c1cc(C(=O)O)ccn1`, the figures for the concentration for half-maximal inhibition (IC50) on RNA demethylase ALKBH5 [1], against RNA demethylase ALKBH5 [2] and at RNA demethylase ALKBH5 [3] were 12.5 µM, 18.4 µM and 10.8 µM, respectively.
For `O=Cc1cc(S(=O)(=O)NC(=O)c2cc(C(=O)O)ccn2)ccc1O` the same measures were 0.55 µM, 3.4 µM and 0.45 µM.
Taken in the same sequence, the figures for `C=CC(=O)Nc1cccc(S(=O)(=O)NC(=O)c2cc(C(=O)O)ccn2)c1` were 5.32 µM, 7.44 µM and 3.97 µM.
As to `N#Cc1ccc(S(=O)(=O)NC(=O)c2cc(C(=O)O)ccn2)cc1`, half-maximal inhibition on RNA demethylase ALKBH5 [4] (IC50) was put at 39.9 µM.
The same measure, in the same setting: as for `O=C(O)c1ccnc(C(=O)NCc2ccccc2[N+](=O)[O-])c1`, the figure is > 200 µM.
For `COc1ccc(S(=O)(=O)NC(=O)c2cc(C(=O)O)ccn2)cc1`, the IC50 at RNA demethylase ALKBH5 [4] was found to be 19.1 µM.
Still for that read-out and setting: next, `COc1ccccc1S(=O)(=O)NC(=O)c1cc(C(=O)O)ccn1`: > 200 µM; `O=C(O)c1ccnc(C(=O)NS(=O)(=O)c2ccc(-c3ccccc3)cc2)c1`: 16.5 µM.
Take `CC(=O)c1cc(S(=O)(=O)NC(=O)c2cc(C(=O)O)ccn2)c2ccccc2c1O`: the half-maximal inhibitory concentration (IC50) at RNA demethylase ALKBH5 [1] is 5.81 µM; on RNA demethylase ALKBH5 [2], 8.56 µM; at RNA demethylase ALKBH5 [3], 5.52 µM.
Taken in the same sequence, the figures for `CC(=O)c1cc(S(=O)(=O)NC(=O)c2cc(C(=O)O)ccn2)ccc1O` were 6.5 µM, 14.8 µM and 4.38 µM.
Turning to `N#Cc1ccccc1S(=O)(=O)NC(=O)c1cc(C(=O)O)ccn1`, the half-maximal inhibitory concentration (IC50) on RNA demethylase ALKBH5 [4] was > 200 µM.
One may read the Kd as the concentration at which binding is half-saturated. Take `O=C(O)c1ccnc(C(=O)NS(=O)(=O)c2cccc3ccccc23)c1`: the inhibition result on RNA demethylase ALKBH5 [5] and on RNA demethylase ALKBH5 [10] was “inactive” throughout. In addition, the Kd on RNA demethylase ALKBH5 [6] came out at 61.7 µM; on RNA demethylase ALKBH5 [8], 52.2 µM; on RNA demethylase ALKBH5 [9] it was 42 µM; on RNA demethylase ALKBH5 [11], 63.9 µM; on RNA demethylase ALKBH5 [12] it was 58.7 µM. In addition, at RNA demethylase ALKBH5 [7], the inhibition entry is “Active”. In addition, the midpoint of inhibition against RNA demethylase ALKBH5 [4], the IC50, lay at 12.7 µM.
For the compound `N#Cc1cccc(S(=O)(=O)NC(=O)c2cc(C(=O)O)ccn2)c1`, the IC50 on RNA demethylase ALKBH5 [4] is > 200 µM.
The same measure, in the same setting: next, `COC(=O)c1ccnc(C(=O)NS(=O)(=O)c2ccccc2[N+](=O)[O-])c1`: > 200 µM.
Regarding `O=C(O)c1ccnc(C(=O)NS(=O)(=O)c2ccccc2C(F)(F)F)c1`, the half-maximal inhibitory concentration (IC50) at RNA demethylase ALKBH5 [4] is > 200 µM.
Turning to `CN(C(=O)c1cc(C(=O)O)ccn1)S(=O)(=O)c1ccccc1[N+](=O)[O-]`, on RNA demethylase ALKBH5 [4], the IC50 is > 200 µM.
On the same count and under the same terms, as for `O=C(OCc1ccc(C(F)(F)F)cc1)c1ccc(-c2cc3ncc(C(=O)c4c(O)ccc([N+](=O)[O-])c4O)cn3n2)cc1`, the figure is 4.06 µM.
Regarding `C=CC(=O)Nc1ccccc1S(=O)(=O)NC(=O)c1cc(C(=O)O)ccn1`, the IC50 on RNA demethylase ALKBH5 [1] was 21.6 µM; against RNA demethylase ALKBH5 [2], 21.2 µM; at RNA demethylase ALKBH5 [3], 19.2 µM.
